Data as given in US6406853B1, “Interventions to mimic the effects of calorie restriction” (The Regents of the University of California, priority 1999, dated 2002).
Entries after “also recorded” stand apart in the source; their conditions may differ. Where two headings read alike, the source gives them in different places.

Columns and labels:
hepatic gene expression = assay: Global hepatic gene expression profile (GeneChip arrays, correlation coefficients); assay type: in vivo, mice
Experimental: GeneChip oligonucleotide-based high-density array RNA expression assays were performed according to the standard Affrymetrix protocol. The biotinylated, fragmented cRNA was hybridized to the Mu11KsubA and Mu11KsubB GeneChip arrays (Affymetrix, Santa Clara, Calif.), which contain targets for more than 11,000 known mouse genes and ESTs. The arrays were washed, stained and scanned. Scanned image analysis and data quantification were performed using the Affymetrix GeneChip analysis suite v3.2 at default parameter settings. Resultant data were normalized by global scaling.
Data analysis. Data sets were normalized furher using GeneSpring 3.0 (Silicon Genetics, San Carlos, Calif.). Negative expression levels were forced to zero, and the expression data for each animal divided by the median of all experimental values for that chip above an expression level of 10. This step reduced cliip-to-chip signal variation. Fold change in expression was calculated by dividing the mean of the expression levels in the CR groups by the mean of the expression levels in the control group.

Life span of mice = assay type: in vivo; settings: mice fed aminoguanidine
GRP78 mRNA = assay: Hepatic GRP78 mRNA in fasted and refed mice (dot-blot); assay type: in vivo; settings: liver; for GRP78 mRNA response to feeding (refed mice): fasted 48 h, i.p. injection 30 min before and 30 min after feeding, killed 1.5 h after feeding, dibutyryl-cAMP given with theophylline; for GRP78 mRNA in fasted mice: mice fasted 48 h, two i.p. injections; for postprandial induction of GRP78 mRNA in STZ-diabetic mice: STZ-induced diabetes combined with dibutyryl-cAMP and theophylline
Experimental: (§1) Retired male Swiss-Webster breeder mice were purchased from Jackson Laboratories. Beginning 30 days before the studies, the mice were fed Monday and Wednesday 11 g and Friday 16.6 g of the control diet daily at 0900 h. In fasting-feeding studies, mice were deprived of food for 48 h, fed 5.5 g of the control diet at 0900 h, and killed 90 min later. The food was consumed within 30 min. Diabetes was induced by three weekly intraperitoneal injections of streptozotocin [10 mg/100 g body weight (b.w.)] in 50 mM sodium citrate, pH 4.5. Mice were diabetic one week after the last injection. Only mice with blood glucose level higher than 3 mg/ml were used. Mice injected with equivalent volumes of sodium citrate served as controls for the STZ-diabetic mice. Adrenalectomized and sham-operated mice were purchased from Jackson Laboratories. Dibutyryl cAMP (Sigma; 18 mg.100 g b.w.), and theophylline (Sigma; 3 mg/100 g b.w), glucagon (Sigma; 300 μg/100 g b.w.), dexamethasone (Sigma; 125 μg/100 g b.w), cycloheximide (Sigma; 4 mg.100 g b.w.), and puromycin (Sigma; 10 mg.100 g b.w.), were administered intraperitonealy to mice as specified in the figure legends. Mice received two doses of each drug or drug combination. The first injection was administered 30 min before feeding, and the second injection was administered 30 min after feeding. Mice were killed 1.5 h after the start of feeding. Drug-injected mice consumed similar amounts of food as control animals during the feeding period. All animal use protocols were approved by the institutional animal use committee of the University of California, Riverside.
Mice were killed and the livers, kidneys, and muscle were removed. Muscle from the hind legs and back was removed and pooled for each animal. Tissues were flash frozen in liquid nitrogen. Approximately 0.2 g of frozen tissue was homogenized for 40 s in 4 ml of TRI Reagent (Molecular Research Center, Cincinnati, Ohio) using a Tekmar Tissuemizer (Tekmar, Cincinnait, Ohio) at a setting of 55. RNA was isolated as described by the TRI Reagent supplier. RNA was resuspended in FORMAzol (Molecular Research Center) and Northern and dot blots were performed using 20 and 10 μg of RNA respectively. The RNA was analyzed using Northern blots to verify its integrity. Dot blots were used to quantify mRNA levels (24; 27). Specific mRNA levels were normalized to the level of total RNA and/or mRNA present in each sample using hybridization with radiolabeled complementary DNA to 18S rRNA and/or transcription factor S-II, as indicated in the figure legends (12; 27). The murine ERp72 2.5 kb cDNA was excised with BamHI from pcD72-1 (19). The 1235 bp murine GRP75 coding fragment was excised with HindIII from pG7z-PBP1.8 (6). A 1.5 kb coding fragment of GRP78 cDNA was produced by digestion of p3C5 with EcoRI and PstI (15). A 1.4 kb hamster GRP94 coding fragment was produced by EcoRI and Sa/K digestion of p4A3 (15). A 664 bp coding fragment of rat calreticulin (nucleotides 148 to 812) was produced by PCR from GT10.U1 (23). The entire 2.4 kb cDNA of murine PDI was excised from pGEM59.4 with SacI and BamHII (19). A 1 kb coding fragment of hamster GRP170 cDNA was excised with EcoRI and XhoI from pCRtmII (16). The 1.9 kb cDNA of murine ERp57 was excised with HindIII and SstI from pERp61 (18). The 1 kb cDNA of murine HSC70 was excised with PstI from phsc1.5 (9). The 1.3 kb PEPCK coding fragment was produced by SphI followed by SalI digestions of pGEM5ZEP (a gift from Dr. Ganner D. K. Vanderbilt University School of Medicine, Nashville, Tenn.). The fragments were isolated by agarose gel electrophoresis and radioactively labeled using a ^T7QuickPrime Kit (Pharmacia) according to the manufacturer's instructions.

[1] = STZ-treated animals; general statement; cited from earlier work
PEPCK mRNA = assay: Hepatic PEPCK mRNA in fasted and refed mice (positive control); assay type: in vivo; settings: liver; mice fasted 48 h or refed
Experimental: as §1, with “The first injection was administered 30 min before feeding, and the second injection was administered 30 min after feeding. Mice were killed 1.5 h after the start of feeding. Drug-injected mice consumed similar amounts of food as control animals during the feeding period. All animal use protocols were approved by the institutional animal use committee of the University of California, Riverside.” left out
Mice were killed and the livers, kidneys, and muscle were removed. […] The RNA was analyzed using Northern blots to verify its integrity. Dot blots were used to quantify mRNA levels (24; 27). […]

## N=C(N)NN [aminoguanidine, Aminoguanidine]
Hepatic gene expression; mice fed aminoguanidine
  correlation of gene expression with old CR or old control mice: did not correlate
  effect on hepatic gene expression: large effect
Life span of mice
  effect on life span: little or no effect

## CN(N=O)C(=O)N[C@H]1C(O)O[C@H](CO)[C@@H](O)[C@@H]1O (mixture of isomers) [STZ, streptozotocin]
GRP78 mRNA
  GRP78 mRNA response to feeding (refed mice): blunted response; also recorded: significantly reduced
  GRP78 mRNA in fasted mice: did not modify
Hepatic gene expression; STZ-diabetic mice, diabetic about 4 weeks
  hepatic gene expression compared with young CR and young control mice: very different
[1]
  effect on life span: shortens

## C[C@@H]1C[C@@H]([C@H](O)CC2CC(=O)NC(=O)C2)C(=O)[C@@H](C)C1 [cycloheximide]
GRP78 mRNA
  GRP78 mRNA response to feeding (refed mice): strongly induced
  GRP78 mRNA in fasted mice: strongly induced; also recorded: induced the mRNA to the same extent
PEPCK mRNA
  PEPCK mRNA in both fasted and refed mice: increased

## CCCC(=O)Nc1ncnc2c1ncn2[C@@H]1O[C@@H]2COP(=O)(O)O[C@H]2[C@H]1OC(=O)CCC [dibutyryl cAMP, Dibutyryl cAMP]
GRP78 mRNA; listed as cAMP
  postprandial induction of GRP78 mRNA in STZ-diabetic mice: obliterated
GRP78 mRNA; listed as dibutyryl-cAMP
  postprandial induction of GRP78 mRNA in STZ-diabetic mice: absence of a feeding response
  GRP78 mRNA response to feeding (refed mice): blunted
GRP78 mRNA
  GRP78 mRNA response to feeding (refed mice): reduced the response

## COc1ccc(C[C@H](N)C(=O)N[C@H]2[C@@H](O)[C@H](n3cnc4c(N(C)C)ncnc43)O[C@@H]2CO)cc1 [puromycin]
GRP78 mRNA
  GRP78 mRNA response to feeding (refed mice): fully induced
  GRP78 mRNA in fasted mice: modestly induced; also recorded: partial induction

## glucagon
GRP78 mRNA
  GRP78 mRNA response to feeding (refed mice): reduced the response; also recorded: blunted
